Results as given in patent publication US20020102533A1, “Hepatitis C protease exosite for inhibit or design” (priority 2000, published 2002).
Like-named read-outs stand apart in the source and are kept apart here. Where a SMILES comes first, the peptide text is derived from it. [ ]: non-standard residue; d: D form. Dip = N[C@H](C(=O)O)C(c1ccccc1)c1ccccc1; Cha = N[C@@H](CC1CCCCC1)C(=O)O

Legend:
[1] = biological target: T1, HCV NS3 protease, genotype 1a (Hepatitis C virus genotype 1a, UniProt P26664); format: biochemical; conditions: P6-P3′ amide substrate
T1 construct: NS3 protease catalytic domain (amino acids 1 to 192); MGAQH expression leader (5 aa), or alternatively the 15 aa His tag […]; made in house; host or cells: E. coli BL21 (DE3)
Method: Endpoint HPLC based HCV protease assay: HCV protease (5 nM) was incubated in 50 mM Tris pH 7.5, 0.1% maltoside, 5 mM DTT and appropriate amounts of glycerol, NS4A peptide, and substrate. Routine assays were 100 μl in volume containing 15% or 50% glycerol, 5.0 μM NS4A peptide and 5.0 μM substrate. Reactions were run at room temperature (˜22° C.) and quenched by the addition of 4 μl of 10% TFA before 10% of the substrate was consumed. Incubation times were 20 minutes for the ester substrate (Peptide Substrate A) and 80 minutes for the P6-P7′ amide substrate (Peptide Substrate B). […] Incubation times were 90 min. Samples, 50 μl, were injected onto an Hewlett Packard 1090 Liquid Chromatograph containing a Dynamax-60A C18 column. The column was eluted with a linear gradient from 10% acetonitrile to 45% acetonitrile in water. All solvents contained 0.1% TFA. A flow rate of 1 ml/min was used. […] The product peaks were detected by fluorescence excitation at 350 nm and emission at 500 nm.
Comparison of the effects of Q9692 on the hydrolysis of a P6-P3′ ester substrate (FIG. 2A) and a P6-P7′ substrate (FIG. 2B) and P6-P3′ amide substrate (FIG. 2C) were determined. […] Hydrolysis products were quantitated by measuring fluorescent peak areas following HPLC and detection by excitation at 350 nm and measuring emission at 500 nm. […]

HCV protease 2A [2] = biological target: T2, HCV protease 2A (Hepatitis C virus genotype 2a, UniProt P26660); test: HCV protease type 2a, 9-mer substrate; format: biochemical
T2 construct: the catalytic domains of types 1b, 1J and 2a have also been examined
Source text: (§1) It is understood that other forms of HCV protease may be used in an assay for the determination of inhibitors. The present invention has disclosed the 1A form of HCV protease, however, the catalytic domains of types 1b, 1J and 2a have also been examined, as well as, the full-length version of form 1b. Evidence for the exosite exists in each case. Activation by Q9692 follows the trend of activation by NS4a. Forms of the enzyme that are more sensitive to NS4a display greater stimulation by Q9692 than forms that are less sensitive. In rank order sensitivity is 1J, 1B, 1A, and 2A. The catalytic activity of 2A toward the 9-mer substrate is enhanced by only 1.5-fold at 4 μM Q9692 and becomes inhibited by Q9692 at concentrations greater than 20 μM. […] Use of alternative forms of the HCV protease is relevent to development of an inexpensive and easy continous assay.

HCV protease 2A [3] = biological target: T2, HCV protease 2A; test: HCV protease type 2a, 13-mer substrate; format: biochemical
Source text: as §1

[4] = biological target: T1, HCV NS3 protease, genotype 1a; format: biochemical; conditions: P6-P3′ ester substrate, NS4a=0, relative to controls without Q9692
HCV protease [5] = biological target: T3, HCV protease (Hepatitis C virus genotype 1b, UniProt P26663); conditions: read-out: inhibitor of HCV protease (potency); 13 residue substrate spanning P6-P7′; cited from earlier work
HCV protease [6] = biological target: T3, HCV protease; conditions: substrate Ac-[…](Edans)—NH2; cited from earlier work

## CC(=O)N[C@@H](CC(=O)O)C(=O)N[C@@H](CCC(=O)O)C(=O)N[C@H](C(=O)N[C@@H](CCC(=O)O)C(=O)N[C@@H](CC1CCCCC1)C(=O)N[C@@H](CS)C(=O)O)C(c1ccccc1)c1ccccc1 [Q9692, Ac-Asp-Glu-Dpa-Glu-Cha-Cys—OH] (Ac-DE[Dip]E[Cha]C-OH)
[1]
  inhibition pattern: mixed inhibition
HCV protease 2A [2]
  concentrations at which enzyme becomes inhibited: greater than 20 μM
HCV protease 2A [2]; 4 μM Q9692
  enhancement of catalytic activity: 1.5 fold
HCV protease 2A [3]
  Ki: ~250 nM
[4]
  relative activity of the protease: ~1
HCV protease [5]
  Ki: 50 nM
HCV protease [6]
  Ki: 50 nM
